# Laboratory results published in patent publication US20120071475A1, “UREA DERIVATIVES HAVING PI3K-INHIBITING ACTIVITY” (SHIONOGI & CO., LTD., priority 2009, published 2012).
# Legend:
# AKT phosphorylation = AKT phosphorylation inhibitory activity in MCP-1 stimulated THP-1 cells (sandwich ELISA); format: cell-based, Human; conditions: Homo sapiens, compound at 1 μmol/L, MCP-1 stimulation, read-out: AKT phosphorylation inhibition ratio
# Procedure: (1) The AKT phosphorylation inhibitory activity of a compound was evaluated according to the following procedure. (2) Human monocyte-like cell line THP-1 was washed with RPMI-1640 media, incubated in the presence of 5% CO2 at 37° C. for 3 hours, washed with Hank's balanced salt solution (HBSS), adjusted to a cell concentration of 6.7×10^6/mL, and then used in an experiment. (3) 30 μL of the cell suspension and 60 μL of each compound solution containing 0.2% DMSO/HBSS were mixed and then preincubated at 37° C. for 5 minutes. 30 μL of HBSS containing 1.2 μg/mL of MCP-1 was added thereto and then incubated for 60 seconds at 37° C. (4) 30 μL of a cell lysate (the final concentrations: 20 mmol/L Tris-HCl (pH 7.5), 150 mmol/L NaCl, 1 mmol/L EDTA, 1 mmol/L EDTA, 1% Triton X-100, 2.5 mmol/L sodium pyrophosphate, 1 mmol/L β-glycerophosphate, 1 mmol/L Na3VO4, 1 μg/ml leupeptin, 50 nmol/L APMSF) was added thereto to lyse cells. (5) The amount of AKT phosphorylation in the cell solution was measured by sandwich ELISA method using anti-Phospho-Akt (Ser473) antibody and anti-AKT1 antibody. (6) Anti-Phospho-Akt (Ser473) antibodies or anti-AKT1 antibodies were immobilized onto the solid phase of a micro well plate. The prepared cell lysate was added to the micro well plate, incubated, and then washed with ELISA wash solution. (7) An anti-AKT1 antibody or anti-Phospho-Akt (Ser473) antibody, which forms a counterpart to an antibody immobilized on the solid phase, was added thereto, incubated, washed similarly, and then reacted with an HRP-labeled anti-mouse IgG antibody. (8) After incubating for 30 minutes and then washing similarly, 100 μL of TMB (3,3′,5,5″-tetramethylbenzidine) was added thereto, followed by reacting for 30 minutes. (9) 100 μL of stop solution was added to quench the color reaction, and then the absorbance at 450 nm was measured. (10) The amount of AKT phosphorylation in a sample in the absence of a compound was defined as 100% activity, and the amount of AKT phosphorylation in a sample in the absence of MCP-1 was defined as 0% activity to calculate an inhibition ratio of each compound. The measurement was performed for a 1 μmol/L solution of each compound.
# PI3Kγ = PI3Kγ (Homo sapiens, UniProt P48736); assay: PI3Kγ inhibitory activity (PI3-kinase HTRF assay, inhibition ratio); format: biochemical; conditions: 0.5 h, compound at 10 μmol/L; read-out: PI3Kg Inhibition Ratio % (10 μM)
# PI3Kγ, sequence (P48736 whole entry, species assumed): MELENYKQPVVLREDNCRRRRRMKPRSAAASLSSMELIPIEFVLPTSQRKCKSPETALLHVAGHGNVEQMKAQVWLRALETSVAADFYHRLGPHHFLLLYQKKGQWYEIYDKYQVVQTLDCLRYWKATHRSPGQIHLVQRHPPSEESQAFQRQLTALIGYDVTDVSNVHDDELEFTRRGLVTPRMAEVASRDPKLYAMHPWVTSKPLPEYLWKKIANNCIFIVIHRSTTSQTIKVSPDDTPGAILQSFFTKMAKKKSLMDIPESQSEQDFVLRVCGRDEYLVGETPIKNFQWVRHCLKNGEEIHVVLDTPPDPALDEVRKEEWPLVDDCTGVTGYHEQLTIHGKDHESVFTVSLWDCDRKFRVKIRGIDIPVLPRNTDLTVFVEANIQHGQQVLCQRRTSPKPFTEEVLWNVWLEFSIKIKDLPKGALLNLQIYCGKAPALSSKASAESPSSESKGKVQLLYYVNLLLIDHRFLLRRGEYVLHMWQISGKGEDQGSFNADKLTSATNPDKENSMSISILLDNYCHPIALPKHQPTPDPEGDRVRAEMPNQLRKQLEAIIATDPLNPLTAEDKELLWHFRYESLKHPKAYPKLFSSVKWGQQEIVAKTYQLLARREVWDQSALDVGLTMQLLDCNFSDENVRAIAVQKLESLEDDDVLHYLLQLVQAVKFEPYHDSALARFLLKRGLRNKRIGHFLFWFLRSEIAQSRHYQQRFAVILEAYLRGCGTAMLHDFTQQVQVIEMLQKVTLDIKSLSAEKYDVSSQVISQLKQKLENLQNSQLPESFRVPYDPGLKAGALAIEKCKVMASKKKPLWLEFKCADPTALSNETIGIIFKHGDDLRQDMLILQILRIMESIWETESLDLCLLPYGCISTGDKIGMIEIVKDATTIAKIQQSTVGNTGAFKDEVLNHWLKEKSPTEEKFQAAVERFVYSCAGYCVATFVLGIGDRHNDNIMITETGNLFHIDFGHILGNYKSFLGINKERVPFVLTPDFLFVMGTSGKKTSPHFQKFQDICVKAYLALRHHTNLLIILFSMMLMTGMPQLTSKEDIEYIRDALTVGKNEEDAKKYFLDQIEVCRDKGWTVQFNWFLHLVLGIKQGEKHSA
# Outline: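 Compound at 10 μmol/L preincubated 10 min with PI3Kγ and PIP2 substrate, then reacted with ATP for 30 minutes at room temperature; the compound, substrate and ATP figures as printed (40 μmol/L each) are solution concentrations. HTRF 665/620 nm ratio read after 18 hours. Inhibition ratio calculated against no-compound (100%) and no-enzyme (0%) controls.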
# CYP3A4 = target: T1, CYP3A4 (Homo sapiens, UniProt P08684); assay: CYP3A4 fluorescence MBI test; format: in vitro ADME; conditions: difference in IC50 with 0 or 30 minutes pre-reaction; CYP3A4 expressed in E. coli, substrate 7-BFC
# T1 construct: host or cells: E. coli
# T1 sequence (P08684 whole entry): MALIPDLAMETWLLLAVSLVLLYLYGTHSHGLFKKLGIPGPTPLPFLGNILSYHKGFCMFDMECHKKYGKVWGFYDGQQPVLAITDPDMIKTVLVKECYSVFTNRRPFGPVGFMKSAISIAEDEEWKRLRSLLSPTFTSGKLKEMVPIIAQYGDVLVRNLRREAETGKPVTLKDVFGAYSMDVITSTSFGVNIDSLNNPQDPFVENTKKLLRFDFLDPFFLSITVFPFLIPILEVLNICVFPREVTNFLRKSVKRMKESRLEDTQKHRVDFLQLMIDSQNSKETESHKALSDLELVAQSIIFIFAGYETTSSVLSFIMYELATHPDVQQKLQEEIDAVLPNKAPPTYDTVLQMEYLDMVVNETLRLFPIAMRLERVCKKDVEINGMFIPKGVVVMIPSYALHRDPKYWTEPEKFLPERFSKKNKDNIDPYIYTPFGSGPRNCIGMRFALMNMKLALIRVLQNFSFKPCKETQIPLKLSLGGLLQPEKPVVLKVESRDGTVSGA
# Procedure: The CYP3A4 fluorescence MBI test is a test to examine the enhancement of CYP3A4 inhibition of a compound by a metabolic reaction. The test was performed using as an index, a reaction to produce a metabolite 7-hydroxytrifluoromethylcoumarin (HFC) which emits fluorescence, in which CYP3A4 expressed in E. coli was used as an enzyme and 7-benzyloxytrifluoromethylcoumarin (7-BFC) is debenzylated by CYP3A4 enzyme.
# The reaction conditions are as follows: substrate: 5.6 μmol/L 7-BFC; pre-reaction time; 0 or 30 minutes; reaction time: 15 minutes; reaction temperature: 25° C. (room temperature); content of CYP3A4 (an enzyme expressed in E. coli): […] at the time of a pre-reaction and […] (when diluted 10 times) at the time of a reaction; the concentrations of a test drug: 0.625, 1.25, 2.5, 5, 10, and 20 μmol/L (6 points).
# In a 96-well plate, an enzyme solution and a test drug solution were added as a pre-reaction solution into K-Pi buffer solution (pH 7.4) in the aforementioned ratio. A portion thereof was transferred to another 96-well plate to be diluted ten times with a substrate and a K-Pi buffer solution. A coenzyme, NADPH, was then added to start a reaction, which is the index (this is without a pre-reaction). After reacting for a predetermined time, 4:1 of acetonitrile: 0.5 mol/L Tris (trishydroxyaminomethane) was added to quench the reaction. To the remaining pre-reaction solution, NADPH was added to start a pre-reaction (this is with a pre-reaction). After pre-reacting for a predetermined time, a portion thereof was transferred to another plate to be diluted ten times with a substrate and K-Pi buffer solution, and thereby the index reaction is started. After reacting for a predetermined time, 4:1 of acetonitrile:0.5 mol/L Tris (trishydroxyaminomethane) was added to quench the reaction. For each plate in which the index reaction was carried out, the fluorescence value of a metabolite 7-HFC was measured with a fluorescent plate reader (Ex=420 nm, Em=535 nm).
# The case wherein only DMSO (a solvent which dissolved a drug) was added to a reaction system was defined as a control (100%). When a test drug solution was added, the remaining activity (%) at each concentration was calculated, and then IC50 was calculated with a concentration and an inhibition ratio by an inverse estimation using a logistic model. When the difference in IC50 value is 5 μmol/L or more, the compound is shown as (+). When 3 μmol/L or less, the compound is shown as (−).
# hERG channel (IKr) = target: T2, hERG channel (IKr) (Homo sapiens, UniProt Q12809); assay: hERG test (whole-cell patch-clamp, IKr in HEK293 cells); format: cell-based; conditions: human, HEK293 cells expressing hERG channel, pH 7.4, inhibition of maximum tail current (IKr), compound 1 μM
# T2 construct: expressed in transfected cells; host or cells: HEK293
# T2 sequence (Q12809 whole entry): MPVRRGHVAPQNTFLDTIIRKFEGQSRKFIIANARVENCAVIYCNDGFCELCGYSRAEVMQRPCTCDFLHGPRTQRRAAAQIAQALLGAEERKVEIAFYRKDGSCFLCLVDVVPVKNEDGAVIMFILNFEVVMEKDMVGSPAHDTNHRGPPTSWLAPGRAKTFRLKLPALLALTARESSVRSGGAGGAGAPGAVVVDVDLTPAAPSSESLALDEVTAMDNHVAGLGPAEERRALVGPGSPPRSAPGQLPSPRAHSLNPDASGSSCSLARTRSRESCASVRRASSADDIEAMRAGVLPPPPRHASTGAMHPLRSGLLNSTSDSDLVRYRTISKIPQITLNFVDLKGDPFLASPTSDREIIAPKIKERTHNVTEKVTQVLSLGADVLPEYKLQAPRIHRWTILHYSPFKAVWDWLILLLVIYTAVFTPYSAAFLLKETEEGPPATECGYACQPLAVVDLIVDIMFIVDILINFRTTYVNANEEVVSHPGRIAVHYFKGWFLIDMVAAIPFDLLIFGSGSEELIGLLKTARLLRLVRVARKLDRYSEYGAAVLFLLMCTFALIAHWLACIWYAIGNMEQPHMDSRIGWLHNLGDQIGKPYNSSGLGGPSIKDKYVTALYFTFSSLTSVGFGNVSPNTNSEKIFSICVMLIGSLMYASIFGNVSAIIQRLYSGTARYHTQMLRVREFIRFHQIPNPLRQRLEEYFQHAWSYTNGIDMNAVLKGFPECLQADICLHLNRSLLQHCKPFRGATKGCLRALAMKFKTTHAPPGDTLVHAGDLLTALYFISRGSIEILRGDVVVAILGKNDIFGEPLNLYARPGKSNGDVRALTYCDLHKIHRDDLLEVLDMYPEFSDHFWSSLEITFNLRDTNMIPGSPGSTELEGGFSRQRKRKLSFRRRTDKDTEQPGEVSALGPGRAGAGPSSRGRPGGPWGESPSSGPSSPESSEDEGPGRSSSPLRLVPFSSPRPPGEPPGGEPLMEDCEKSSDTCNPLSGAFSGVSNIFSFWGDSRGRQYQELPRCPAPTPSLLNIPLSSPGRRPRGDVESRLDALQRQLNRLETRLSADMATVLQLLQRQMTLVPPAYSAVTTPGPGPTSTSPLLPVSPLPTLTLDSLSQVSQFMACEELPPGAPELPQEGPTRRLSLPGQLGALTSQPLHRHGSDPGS
# Source text: For the purpose of risk evaluation of QT interval extension of electrocardiogram, the activity on delayed rectification K^+ current (IKr), which plays an important role in a cardiac ventricle repolarization process, was examined using the HEK293 cell that was made to express human ether-a-go-go related gene (hERG) channel.
# Using an automatic patch-clamp system (PatchXpress 7000A, Axon Instruments Inc.), by a whole-cell patch-clamp method, after the cell was maintained at a membrane potential of −80 mV, IKr induced upon applying depolarizing stimulation of +50 mV for 2 seconds and further applying repolarizing stimulation of −50 mV for 2 seconds was recorded. After generated electric current became stable, a test substance dissolved at an intended concentration in extracellular fluid (137 mmol/L NaCl, 4 mmol/L KCl, 1.8 mmol/L CaCl2.2H2O, 1 mmol/L MgCl2.6H2O, 10 mmol/L glucose, 10 mmol/L HEPES (4-(2-hydroxyethyl)-1-piperazineethanesulfonic acid), pH=7.4) was applied to the cell for 10 minutes under room temperature condition. From the obtained IKr, the absolute value of the maximum tail current was measured using analysis software (DataXpress ver. 1, Molecular Devices Corporation) and the value of the electric current in a maintained membrane potential as baseline. Moreover, an inhibition ratio for the maximum tail current prior to the application of the test substance was calculated and then compared with a group of media-application (0.1% dimethylsulfoxide solution) to evaluate influence of the test substance on IKr.
# [1] = Metabolic stability test (pooled human liver microsome); format: in vitro ADME; conditions: percentage of test compound remained after 30 minutes, pooled human liver microsome 0.5 mg protein/mL, 1 mmol/L NADPH, 37° C., compound 0.5 μM
# Outline: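 Pooled human liver microsomes (0.5 mg protein/mL) incubated with compound and 1 mmol/L NADPH at 37° C. in pH 7.4 Tris buffer for 0 or 30 min. Parent quantified by LC/MS/MS after methanol/acetonitrile quench; value is % remaining at 30 min versus 0 min.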
Compound,inhibition at 10 µM (PI3Kγ) [%],hLMS_ox(at 0.5 μM) % [1] [%],inhibition at 1 µM (AKT phosphorylation) [%],MBI (CYP3A4),"inhibition at 10 min, 1 µM (hERG channel (IKr)) [%]"
COc1cc(N2CCc3nc(NC(=O)Nc4ccccc4C(=O)NC4CCCC4O)sc3C2)nc(OC)n1 (centres unmarked) [Compound I-134],≥ 95,88.4,93,,1.7
COc1cc(N2CCc3nc(NC(=O)Nc4ccccc4C(=O)NC4CCOC4)sc3C2)nc(OC)n1 (centres unmarked) [Compound I-135],≥ 95,85.8,89,,1.8
COc1cc(N2CCc3nc(NC(=O)Nc4cn(C)nc4C(=O)NCC#N)sc3C2)nc(OC)n1 [Compound I-152],≥ 95,96.8,≥ 95,,4.7
[2H]C([2H])([2H])C([2H])(NC(=O)c1ccccc1NC(=O)Nc1nc2c(s1)CN(c1cc(OC)nc(OC)n1)CC2)C([2H])([2H])[2H] [Compound I-153],≥ 95,83,≥ 95,"(−) (When 3 μmol/L or less, the compound is shown as (−))",
COc1cc(N2CCc3nc(NC(=O)Nc4cn(C)nc4C(=O)NC4CCOC4)sc3C2)nc(OC)n1 (centres unmarked) [Compound I-156],80,,≥ 95,,2.7
COc1cc(N2CCc3nc(NC(=O)Nc4ccccc4C(=O)NC4CCCOC4)sc3C2)nc(OC)n1 (centres unmarked) [Compound I-160],≥ 95,,≥ 95,,
COc1cc(N2CCc3nc(NC(=O)Nc4ccccc4C(=O)NC4CCCCC4O)sc3C2)nc(OC)n1 (centres unmarked) [Compound I-161],≥ 95,,93,,6.1
CC(C)NC(=O)c1ccccc1NC(=O)Nc1nc2c(s1)CN(c1cncc(S(C)(=O)=O)c1)CC2 [Compound I-166],≥ 95,,76,,1.8
COC(=O)[C@H](CO)NC(=O)c1nn(C)cc1NC(=O)Nc1nc2c(s1)CN(c1cc(OC)nc(OC)n1)CC2 [Compound I-167],≥ 95,,≥ 95,,
Cc1cc(N2CCc3nc(NC(=O)Nc4ccccc4C(=O)N[C@H](C)CO)sc3C2)nc(Cl)n1 [Compound I-169],≥ 95,94.4,75,,2.7
COc1cc(N2CCc3nc(NC(=O)Nc4ccccc4C(=O)NN4CCOCC4)sc3C2)nc(OC)n1 [Compound I-193],92,91.2,81,,
CC(C)NC(=O)c1nn(C)cc1NC(=O)Nc1nc2c(s1)CN(c1cncc(C#N)c1)CC2 [Compound I-205],≥ 95,,90,,0.2
CS(=O)(=O)c1cncc(N2CCc3nc(NC(=O)Nc4ccccc4C(=O)NCC#N)sc3C2)c1 [Compound I-210],91,,93,"(−) (When 3 μmol/L or less, the compound is shown as (−))",

# Second part, led by results:
inhibition at 10 µM (PI3Kγ) [%],hLMS_ox(at 0.5 μM) % [1] [%],Compound,inhibition at 1 µM (AKT phosphorylation) [%],MBI (CYP3A4),"inhibition at 10 min, 1 µM (hERG channel (IKr)) [%]"
93,,COc1cc(N2CCc3nc(NC(=O)Nc4ccccc4C(=O)NC(C)(C)C)sc3C2)nc(OC)n1 [Compound I-7],77.6,,
≥ 95,,COc1cc(N2CCc3nc(NC(=O)Nc4cnccc4C(=O)NC(C)C)sc3C2)nc(OC)n1 [Compound I-27],94.1,"(−) (When 3 μmol/L or less, the compound is shown as (−))",2
≥ 95,,COc1cc(N2CCc3nc(NC(=O)Nc4cnccc4OCCC(C)C)sc3C2)nc(OC)n1 [Compound I-97],80.4,"(−) (When 3 μmol/L or less, the compound is shown as (−))",
≥ 95,,COc1cc(N2CCc3nc(NC(=O)Nc4ccccc4C(=O)NC(C)C(F)(F)F)sc3C2)nc(OC)n1 (centres unmarked) [Compound I-136],84,,
≥ 95,98.7,[2H]C([2H])([2H])[C@@H](CO)NC(=O)c1ccccc1NC(=O)Nc1nc2c(s1)CN(c1cc(OC)nc(OC)n1)CC2 [Compound I-154],≥ 95,,
90,95.9,COc1cc(N2CCc3nc(NC(=O)Nc4cn(C)nc4C(=O)N[C@@H](C)CO)sc3C2)nc(OC)n1 [Compound I-155],≥ 95,,2.9
87,96.2,COc1cc(N2CCc3nc(NC(=O)Nc4ccccc4C(=O)NCC(C)O)sc3C2)nc(OC)n1 (centres unmarked) [Compound I-157],≥ 95,,0.4
77,85.6,COc1cc(N2CCc3nc(NC(=O)Nc4ccccc4C(=O)NC(C)C#N)sc3C2)nc(OC)n1 (centres unmarked) [Compound I-159],≥ 95,,3.8
